Assay results reported in patent US20150174145A1, “Pharmaceutical compounds with the structure of ionic salts with antibiotic and anticancer action” (priority 2013, published 2015).

What was measured:
[1] = tested on: PC3 (prostate cancer cell line); experiment: MTT cellular viability/proliferation, cancer cell lines; format: cell-based, human; conditions: Homo sapiens; PC3, MTT assay
Description: (§1) At about 70-80% confluence, cells were enzymatically detached with 0.05% trypsin and 0.5 mM EDTA and seeded at 10^4 cells cm^−2.
(§2) After an attachment period of 24 hours, the culture medium was renewed, and supplemented with different concentrations (0.005-500 mM) of the ampicillin derived ionic liquid. Cell cultures were maintained in a 5% CO2 humidified atmosphere at 37° C.
(§3) Cellular viability/proliferation was assessed by the MTT assay at days 1, 3 and 5 of the culture. This assay is based on the reduction of 3-(4,5-dimethylthiazol-2-yl)-2,5-diphenyltetrazolium bromide (MTT) to a purple formazan product by viable cells.
(§4) Shortly, cultured cells were incubated at 37° C. with 0.5 mg ml −1 of MTT for 4 hours. The culture medium was then removed; the stained product dissolved with dimethylsulfoxide, and absorbance determined at 550 nm in an ELISA plate rewader. Results were expressed as absorbance per cm2.
(§5) The values of the […] (IC50) and the median lethal dose (LD50) were obtained from nonlinear regression analysis of concentration effect curves using the GGraphPad Prism Software.
(§6) It is used to measure the efficacy of a compound in inhibiting any biochemical or biological function.

[2] = tested on: RKO (colon cancer cell line); experiment: as above; format: cell-based, human; conditions: Homo sapiens, MTT assay
Description: as §1, §2, §3, §4, §5, §6

[3] = tested on: MG63 (osteosarcoma cell line); experiment: as above; format: cell-based, human; conditions: Homo sapiens, MG-63; MG63, MTT assay
Description: as §1, §2, §3, §4, §5, §6

[4] = tested on: HepG2 (hepatocellular liver carcinoma cell); experiment: as above; format: cell-based, human; conditions: Homo sapiens; HepG2, MTT assay
Description: as §1, §2, §3, §4, §5, §6

K. pneumoniae = experiment: Minimum inhibitory concentration, ampicillin sensitive strains; format: cell-based, Klebsiella pneumonia; conditions: K. pneumoniae, Gram-negative, ampicillin sensitive
Description: (§7) Each one of the 24 combinations of the ionic liquids were tested with following 9 bacteria: • Escherichia coli ATCC25922 • Staphylococcus aureus ATCC25923 • Klebsiella pneumonia • Staphylococcus epidermidis • Enterococcus fecalis • E. coli Tem CTXM9 • E. coli CTXM2 • E. coli AmpCMox2 • Saccharomyces cerevisiae PYCC 4072
(§8) These bacteria were tested in Vitek2 systems from bioMérieux. Bacteria were grown on Trypticase soy agar for 24 hours at 37° C. prior to each test. The bacteria assays were made in Tryptic Soy Broth.

E. coli TEM CTX M9 [5] = experiment: Minimum inhibitory concentration, ampicillin resistant strains; format: cell-based; conditions: Escherichia coli; E. coli TEM CTX M9, ampicillin resistant; read-out: Minimum inhibitory concentrations
Description: as §7, §8

E. coli CTX M2 = experiment: as above; format: cell-based; conditions: Escherichia coli, CTXM2; E. coli CTX M2, ampicillin resistant; read-out: Minimum inhibitory concentrations
Description: as §7, §8

K. pneumonia = experiment: Growing rates in presence and absence of compound; format: cell-based, Klebsiella pneumonia; conditions: conc. tested 0.5 mM
Description: as §8

E. coli ATCC 25922 [6] = experiment: Growing rates in presence and absence of compound; format: cell-based, Escherichia coli; conditions: E. coli ATCC 25922, conc. tested 0.5 mM
Description: as §8

E. fecalis [7] = experiment: Growing rates in presence and absence of compound; format: cell-based, Enterococcus fecalis; conditions: conc. tested 0.005 mM
Description: as §8

E. coli TEM CTX M9 [8] = experiment: Growing rates in presence and absence of compound; format: cell-based; conditions: E. coli TEM CTX M9, conc. tested 0.05 mM
Description: as §8

E. coli AmpC MOX2 = experiment: Growing rates in presence and absence of compound; format: cell-based; conditions: E. coli AmpC Mox2, conc. tested 0.05 mM
Description: as §8

SF (skin fibroblasts) = experiment: MTT cellular viability/proliferation, primary human cells; format: cell-based; conditions: Homo sapiens, Skin fibroblast, MTT assay
Description: as §1, §2, §3, §4, §5, §6

[9] = tested on: gingival fibroblasts (GF); experiment: as above; format: cell-based; conditions: Homo sapiens, Fibroblast, MTT assay
Description: as §1, §2, §3, §4, §5, §6

S. epidermis [10] = experiment: Growing rates in presence and absence of compound; format: cell-based, Staphylococcus epidermidis; conditions: conc. tested 0.005 mM
Description: as §8

S. epidermis [11] = experiment: Minimum inhibitory concentration, ampicillin sensitive strains; format: cell-based, Staphylococcus epidermidis; conditions: Staphylococcus epidermidis; S. epidermis, Gram-positive, ampicillin sensitive; read-out: Minimum inhibitory concentrations
Description: as §7, §8

E. coli ATCC 25922 [12] = experiment: as above; format: cell-based, Escherichia coli; conditions: Escherichia coli, ATCC25922; E. coli ATCC 25922, Gram-negative, ampicillin sensitive; read-out: Minimum inhibitory concentrations
Description: as §7, §8

E. fecalis [13] = experiment: as above; format: cell-based, Enterococcus fecalis; conditions: Enterococcus; E. fecalis, Gram-positive, ampicillin sensitive; read-out: Minimum inhibitory concentrations
Description: as §7, §8

S. aureus ATCC 25923 = experiment: Growing rates in presence and absence of compound; format: cell-based, Staphylococcus aureus; conditions: S. aureus ATCC 25923, conc. tested 0.0005 mM
Description: as §8

[14] = tested on: T47D (ductal breast epithelial tumour cell line); experiment: cells; format: cell-based; conditions: Homo sapiens; T47D, MTT assay
Description: as §1, §2, §3, §4, §5, §6

CC1(C)S[C@@H]2[C@H](NC(=O)[C@H](N)c3ccccc3)C(=O)N2[C@H]1C(=O)O [[P6,6,6,14][Amp]]
IC50 [1]: 354 nM | IC50 [2]: 180 nM | IC50 [3]: 312 nM | IC50 [4]: 322 nM | Minimum inhibitory concentrations (K. pneumoniae): 5.0 mM | MIC (K. pneumoniae; Klebsiella pneumoniae, read-out: Minimum inhibitory concentrations): 5 mM | MIC (E. coli TEM CTX M9 [5]): 500 µM | MIC (E. coli CTX M2): 500 µM | Growing rate with compound (K. pneumonia): 0.00045 ± 0.00007 min⁻¹ | Decreasing rate (K. pneumonia; with compound vs no compound): 0.18 | Growing rate with compound (E. coli ATCC 25922 [6]): 0.0007 ± 0.0001 min⁻¹ | Decreasing rate (E. coli ATCC 25922 [6]; with compound vs no compound): 0.035 | Growing rate with compound (E. fecalis [7]): 0.0009 ± 0.0004 min⁻¹ | Decreasing rate (E. fecalis [7]; with compound vs no compound): 0.28 | Growing rate with compound (E. coli TEM CTX M9 [8]): 0.00067 ± 0.00006 min⁻¹ | Decreasing rate (E. coli TEM CTX M9 [8]; with compound vs no compound): 0.20 | Growing rate with compound (E. coli AmpC MOX2): 0.00077 ± 0.00006 min⁻¹ | Decreasing rate (E. coli AmpC MOX2; with compound vs no compound): 0.24 | IC50 (SF (skin fibroblasts)): 249 nM | IC50 [9]: 173 nM | Growing rate with compound (S. epidermis [10]): 0.0006 ± 0.0000 min⁻¹ | Decreasing rate (S. epidermis [10]; with compound vs no compound): 0.13 | MIC (S. epidermis [11]): 50 µM | MIC (E. coli ATCC 25922 [12]): 2500 µM | MIC (E. fecalis [13]): 50 µM | Growing rate with compound (S. aureus ATCC 25923): 0.0004 ± 0.0003 min⁻¹ | Decreasing rate (S. aureus ATCC 25923; with compound vs no compound): 0.077 | IC50 [14]: 264 nM
